Key:
[1] = tested on: FeCl3-Induced Middle Cerebral Artery Thrombosis (MCAT) Rats; experiment: Cerebral infarct size (TTC staining) in FeCl3-induced middle cerebral artery thrombosis rats; type: in vivo, rat; settings: 0.6 mg/kg by gavage 7 days, x ± s
Text: (§1) Tamura and Liu's methods were used with modifications to prepare the model. Rats were anesthetized by intraperitoneal injection of 10% chloral hydrate (0.35 g/kg); and fixed with right arm reclining. An arc incision of about 1.5 cm in length was made at the midpoint between the link of paropia and external auditory canal and temporalis was removed to expose the temporal bone. […] The surrounding-tissues were protected with a piece of plastic film. A small piece of quantitative filter paper, which had absorbed 10 μL of a 50% ferric chloride solution, was applied on this segment of middle cerebral artery. The filter paper was removed after 30 min, and local tissues were rinsed with normal saline solution, followed by suture layer by layer. Then the experimental rats were put back to rearing cage. The temperature was controlled at 24° C. For the sham-operation group, the operation procedures were the same as the model group except for the application of the ferric chloride solution.
After behavior assessment, the animals were decapitated to remove the brains. The olfactory bulb, cerebellum and lower brain stem were removed, and the remaining part was cut into 5 coronal sections below 4° C. The sections were immediately placed into a TTC staining solution (containing 1.5 m 4% TTC, 0.1 ml 1M K2HPO4 and water (balance) per 5 ml staining solution), followed by incubation in dark at 37° C. for 30 min. Then, the sections were transferred into a solution of 10% formaldehyde and incubated in dark for 24 h. After staining, the non-ischemic areas were rose red, and the infracted areas were white. The white tissues were carefully collected and weighed. The extent of cerebral infarction was expressed as a percentage (%) of infracted tissue to the weight of total brain and also to the affected side of brain.

[2] = tested on: FeCl3-Induced Middle Cerebral Artery Thrombosis (MCAT) Rats; experiment: Neurological symptom score in middle cerebral artery thrombosis rats; type: in vivo, rat; settings: 0.6 mg/kg by gavage 7 days, full score 4
Text: as §1
The experimental animals were tested for behaviors 6 h and 24 h after operation according to the Sederson's method with modifications. Criteria: (1) The tail of the rat was lifted to observe the flexibility of the forelimb, with both forelimbs symmetrically stretching forward scored as 0, and occurrence of any or all of shoulder inflexion, elbow inflexion, shoulder intorsion in the contralateral fore-limb opposite to the operation side scored as 1. (2) The animal was placed on a plane, and its shoulders were pushed to the opposite direction to check resistance, Equivalency and strong resistance in both sides was scored as 0, and reduction in resistance in the contralateral side was scored as 1. (3) Both forelimbs of the rat were placed on wire gauze to observe the muscular tension. […] According to the criteria above, the full score is 4, and the higher the score is, the more serious the behavior disorder of the animal is.

[3] = tested on: acute blood stagnation model rats; experiment: Erythrocyte aggregation and deformability in acute blood stagnation model rats; type: in vivo, rat; settings: 12 mg/kg
Description: MAO Teng-min's methods were modified to prepare the model. Rats were subcutaneously injected with 0.8 mg/kg adrenaline twice at 1 h and 5 h after administration on the fifth day, and were placed into ice-water at 4° C. for 5 min at 2 h after the first injection of adrenaline.
To 40 μl of heparinized blood, 1 ml of deforming solution was added and mixed thoroughly. A sample of 0.8 ml was tested in an erythrocyte aggregation/deformability tester, and erythrocyte deformability was expressed as maximal erythrocyte deformation index and area under curve (SSS). Another 0.8 ml of anticoagulated blood was tested in an erythrocyte aggregation/deformability tester, and erythrocyte aggregation was expressed as maximal erythrocyte aggregation index (MAXD) and area under curve ([…]).

[4] = tested on: acute blood stagnation model rats; experiment: Whole blood and plasma viscosities in acute blood stagnation model rats; type: in vivo, rat; settings: 12 mg/kg by gavage 5 days
Text: MAO Teng-min's methods were modified to prepare the model.

TNF-α = experiment: ELISA of TNF-α in brain tissue of cerebral ischemia-reperfusion rats; settings: brain homogenate, 12 mg/kg by gavage 5 days
IL-1β = experiment: ELISA of IL-1β in brain tissue of cerebral ischemia-reperfusion rats; settings: brain homogenate, 12 mg/kg by gavage 5 days
IL-10 = experiment: ELISA of IL-10 in brain tissue of cerebral ischemia-reperfusion rats; settings: brain homogenate, 12 mg/kg by gavage 5 days
TGF-β = experiment: ELISA of TGF-β in brain tissue of cerebral ischemia-reperfusion rats; settings: brain homogenate, 12 mg/kg by gavage 5 days
[5] = tested on: Middle Cerebral Artery Thrombosis (MCAT) Rats; experiment: Water content in brain tissues in middle cerebral artery thrombosis rats; type: in vivo, rat; settings: 24 h after operation, 12 mg/kg

Compound | cerebral infarct size percentage to affected side [1] [%] | cerebral infarct size percentage to total brain [1] [%] | neurological symptomatic score 6 h ([2]; 6 h after operation) | neurological symptomatic score 24 h ([2]; 24 h after operation) | Erythrocyte aggregation SS ([3]; area under curve) | Erythrocyte deformability SSS ([3]; area under curve) | Erythrocyte aggregation MAXD ([3]; maximal erythrocyte aggregation index) | Erythrocyte deformability MAXDI ([3]; maximal erythrocyte deformation index) | Plasma viscosity (100 S^−1) [4] | Whole blood viscosity 1 S^−1 [4] | Whole blood viscosity 5 S^−1 [4] | Whole blood viscosity 30 S^−1 [4] | Whole blood viscosity 200 S^−1 [4] | TNFα (TNF-α) [pg/mL] | IL-1β (IL-1β) [pg/mL] | IL-10 (IL-10) [pg/mL] | TGF-β (TGF-β) [pg/mL] | Water content of affected hemisphere [5] [%] | Water content of unaffected hemisphere [5] [%]
Hydergine [reference compound] | 3.75 ± 1.38 | 1.98 ± 0.72 | 1.91 ± 0.83 | 1.55 ± 0.69 |  |  |  |  |  |  |  |  |  |  |  |  |  |  | 
COCCOC(=O)C1=C(C)NC(C)=C(C(=O)OC(C)C)C1c1cccc([N+](=O)[O-])c1 (stereo not shown) [Nimodipine, reference compound] |  |  |  |  | 160.38 ± 16.50 | 353.92 ± 15.83 | 0.80 ± 0.09 | 0.70 ± 0.03 | 1.41 ± 0.14 | 30.45 ± 8.74 | 12.34 ± 2.58 | 6.47 ± 0.92 | 4.51 ± 0.55 | 7.92 ± 0.56 | 9.01 ± 0.81 | 4.98 ± 3.54 | 12.01 ± 2.54 | 80.37 ± 0.73 | 79.44 ± 0.41

From patent US7998936B2, “Use of timosaponin Bll in the preparation of a medicament or product for the prevention and treatment of stroke” (Institute of Radiation Medicine, Academy of Military …, priority 2004, dated 2011)
